According to ChEMBL document CHEMBL1201862, “PubChem BioAssay data set” (2004):
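A five-concentration, 48-hour dose response in 96-well plates underlies each endpoint, interpolated linearly between surrounding concentrations. GI50 is the concentration that inhibits growth by half.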 Activity calls are given as the source filed them. Rule as the data show it: active = GI50 up to about 1.1 µM and inactive = higher.

Assays:
Assay in all cases: NCI tumour cell line growth inhibition, 48 h
[1] = tested on: CCRF-CEM
[2] = tested on: Malme-3M
[3] = tested on: SN12C
[4] = tested on: HOP-62
[5] = tested on: EKVX
[6] = tested on: RXF 393
[7] = tested on: SK-MEL-28
[8] = tested on: OVCAR-8
[9] = tested on: SK-MEL-5
[10] = tested on: OVCAR-3
[11] = tested on: 786-0
[12] = tested on: SNB-19
[13] = tested on: M14
[14] = tested on: NCI-H522
[15] = tested on: OVCAR-4
[16] = tested on: HL-60
[17] = tested on: HT-29
[18] = tested on: NCI-H460
[19] = tested on: CAKI-1
[20] = tested on: NCI/ADR-RES
[21] = tested on: MOLT-4
[22] = tested on: MDA-MB-435
[23] = tested on: BT-549
[24] = tested on: ACHN
[25] = tested on: HOP-92
[26] = tested on: PC-3
[27] = tested on: SK-OV-3
[28] = tested on: SF-295
[29] = tested on: SF-268
[30] = tested on: DU-145
[31] = tested on: MCF7
[32] = tested on: UACC-257
[33] = tested on: MDA-N
[34] = tested on: Hs-578T
[35] = tested on: UACC-62
[36] = tested on: HCT-116
[37] = tested on: SR
[38] = tested on: K562
[39] = tested on: LOX IMVI
[40] = tested on: SF-539
[41] = tested on: T47D
[42] = tested on: HCC 2998
[43] = tested on: NCI-H226
[44] = tested on: SW-620
[45] = tested on: COLO 205
[46] = tested on: TK-10
[47] = tested on: SK-MEL-2
[48] = tested on: A549
[49] = tested on: U-251
[50] = tested on: OVCAR-5
[51] = tested on: MDA-MB-231
[52] = tested on: IGROV-1
[53] = tested on: NCI-H23
[54] = tested on: RPMI-8226
[55] = tested on: KM12
[56] = tested on: SNB-75
[57] = tested on: A498
[58] = tested on: HCT-15
[59] = tested on: UO-31

How did the GI50 [1] turn out when CCCc1nnc2sc(COc3cc(Cl)c(OCc4nn5c(CCC)nnc5s4)cc3Cl)nn12 was run?
Its GI50 is 15.6 µM (inactive).

What about the GI50 [2] of the same compound?
The GI50 was 25.9 µM (inactive).

What about the GI50 [3] of the same compound?
The GI50 was 57 µM (inactive).

And the GI50 [4]?
Its GI50 is 38.4 µM (inactive).

And the GI50 [5]?
The GI50 was 22.6 µM (inactive).

What about the GI50 [6] of the same compound?
The GI50 was 31.6 µM (inactive).

What about the GI50 [7] of the same compound?
Its GI50 is 5.66 µM (inactive).

What about the GI50 [8] of the same compound?
Its GI50 is 27.4 µM (inactive).

And the GI50 [9]?
Its GI50 is 12.3 µM (inactive).

And the GI50 [10]?
The GI50 was 24.8 µM (inactive).

And the GI50 [11]?
The GI50 was 35.7 µM (inactive).

What about the GI50 [12] of the same compound?
Its GI50 is 31.5 µM (inactive).

What about the GI50 [13] of the same compound?
The GI50 was 44.7 µM (inactive).

And the GI50 [14]?
The GI50 was 27.3 µM (inactive).

And the GI50 [15]?
The GI50 was 22.5 µM (inactive).

And the GI50 [16]?
The GI50 was 25.6 µM (inactive).

What about the GI50 [17] of the same compound?
Its GI50 is 53 µM (inactive).

What about the GI50 [18] of the same compound?
Its GI50 is 42.8 µM (inactive).

And the GI50 [19]?
The GI50 was 38.5 µM (inactive).

And the GI50 [20]?
The GI50 was 5.9 µM (inactive).

And the GI50 [21]?
The GI50 was 0.4 µM (active).

And the GI50 [22]?
The GI50 was 35.3 µM (inactive).

What about the GI50 [23] of the same compound?
The GI50 was 29.2 µM (inactive).

And the GI50 [24]?
Its GI50 is 25.4 µM (inactive).

And the GI50 [25]?
Its GI50 is 22 µM (inactive).

And the GI50 [26]?
The GI50 was > 100 µM (inactive).

What about the GI50 [27] of the same compound?
The GI50 was 24.5 µM (inactive).

What about the GI50 [28] of the same compound?
The GI50 was 28.6 µM (inactive).

What about the GI50 [29] of the same compound?
Its GI50 is 21.7 µM (inactive).

What about the GI50 [30] of the same compound?
The GI50 was 47 µM (inactive).

And the GI50 [31]?
The GI50 was 23.6 µM (inactive).

And the GI50 [32]?
Its GI50 is 34.1 µM (inactive).

And the GI50 [33]?
The GI50 was 37.6 µM (inactive).

What about the GI50 [34] of the same compound?
The GI50 was 32 µM (inactive).

What about the GI50 [35] of the same compound?
Its GI50 is 24.2 µM (inactive).

What about the GI50 [36] of the same compound?
Its GI50 is 46 µM (inactive).

What about the GI50 [37] of the same compound?
Its GI50 is 46 nM (active).

What about the GI50 [38] of the same compound?
The GI50 was 0.596 µM (active).

What about the GI50 [39] of the same compound?
Its GI50 is 37.1 µM (inactive).

And the GI50 [40]?
The GI50 was 47.8 µM (inactive).

And the GI50 [41]?
Its GI50 is 15.2 µM (inactive).

What about the GI50 [42] of the same compound?
The GI50 was 77.8 µM (inactive).

And the GI50 [43]?
Its GI50 is > 100 µM (inactive).

What about the GI50 [44] of the same compound?
Its GI50 is > 100 µM (inactive).

And the GI50 [45]?
Its GI50 is 50.5 µM (inactive).

What about the GI50 [46] of the same compound?
The GI50 was 52 µM (inactive).

And the GI50 [47]?
The GI50 was > 100 µM (inactive).

And the GI50 [48]?
Its GI50 is 35.2 µM (inactive).

What about the GI50 [49] of the same compound?
The GI50 was 37.2 µM (inactive).

And the GI50 [50]?
The GI50 was > 100 µM (inactive).

What about the GI50 [51] of the same compound?
The GI50 was 47.1 µM (inactive).

And the GI50 [52]?
Its GI50 is 25.2 µM (inactive).

What about the GI50 [53] of the same compound?
The GI50 was 0.748 µM (active).

What about the GI50 [54] of the same compound?
The GI50 was 88.5 nM (active).

And the GI50 [55]?
Its GI50 is 70.1 µM (inactive).

What about the GI50 [56] of the same compound?
Its GI50 is 21.7 µM (inactive).

What about the GI50 [57] of the same compound?
Its GI50 is 37.8 µM (inactive).

And the GI50 [58]?
The GI50 was 0.904 µM.

Which results are given for COc1ccc(/C=C/C(=O)c2ccc(OC(=O)/C=C/c3ccccc3)cc2)cc1?
GI50 [1]: 5.21 µM (inactive); GI50 [2]: 41 µM (inactive); GI50 [3]: 26.6 µM (inactive); GI50 [4]: 61.1 µM (inactive); GI50 [5]: 29 µM (inactive); GI50 [6]: 41.7 µM (inactive); GI50 [7]: 43.6 µM (inactive); GI50 [8]: 26.7 µM (inactive); GI50 [9]: 26 µM (inactive); GI50 [10]: 32 µM (inactive); GI50 [11]: 17 µM (inactive); GI50 [12]: 21.8 µM (inactive); GI50 [13]: 59.8 µM (inactive); GI50 [14]: 19.3 µM (inactive); GI50 [15]: 24.4 µM (inactive); GI50 [16]: 4.08 µM (inactive); GI50 [17]: 18.5 µM (inactive); GI50 [18]: 19.4 µM (inactive); GI50 [19]: 23.3 µM (inactive); GI50 [20]: 31.2 µM (inactive); GI50 [21]: 16.6 µM (inactive); GI50 [22]: 7.73 µM (inactive); GI50 [23]: 14.9 µM (inactive); GI50 [24]: 34.6 µM (inactive); GI50 [25]: 44.5 µM (inactive); GI50 [26]: 25.7 µM (inactive); GI50 [27]: 53 µM (inactive); GI50 [28]: 25.1 µM (inactive); GI50 [29]: 25 µM (inactive); GI50 [30]: 11.9 µM (inactive); GI50 [31]: 23.6 µM (inactive); GI50 [32]: 37.7 µM (inactive); GI50 [33]: 14.5 µM (inactive); GI50 [34]: 36 µM (inactive); GI50 [35]: 22.7 µM (inactive); GI50 [36]: 18.7 µM (inactive); GI50 [37]: 2280 nM (inactive); GI50 [38]: 5.93 µM (inactive); GI50 [39]: 16.7 µM (inactive); GI50 [40]: 11.5 µM (inactive); GI50 [41]: 23.9 µM (inactive); GI50 [42]: 16.2 µM (inactive); GI50 [43]: 59.3 µM (inactive); GI50 [59]: 22.7 µM (inactive); GI50 [44]: 28.1 µM (inactive); GI50 [45]: 32.2 µM (inactive); GI50 [46]: 44.1 µM (inactive); GI50 [47]: 45.1 µM (inactive); GI50 [48]: 29.5 µM (inactive); GI50 [49]: 19 µM (inactive); GI50 [50]: > 85.7 µM (inactive); GI50 [51]: 27.5 µM (inactive); GI50 [52]: 18.9 µM (inactive); GI50 [53]: 21 µM (inactive); GI50 [54]: 3700 nM (inactive); GI50 [55]: 8.97 µM (inactive); GI50 [56]: 28.9 µM (inactive); GI50 [57]: 25.1 µM (inactive); GI50 [58]: 15.7 µM
